Source: the NIST ThermoML archive (doi:10.1021/je200420u)

How the values were obtained:
[1] = DTA
[2] = molar heat capacity at constant pressure; settings: 101.33 kPa, Crystal 4, Small sample (50 mg) DSC
[3] = Molar enthalpy of transition or fusion; settings: DSC

CCN1C(=O)CC(=O)N(CC)C1=S [1,3-diethyl-2-thiobarbituric acid]
Settings | Molar enthalpy of transition or fusion [kcal/mol] | Triple point temperature [K] | molar heat capacity at constant pressure [J/K/mol]
[1], Crystal | – | 377.1 | –
[2], 265.15 K | – | – | 213.5
[2], 270.15 K | – | – | 217.3
[2], 273.15 K | – | – | 219.8
[2], 275.15 K | – | – | 221.2
[2], 280.15 K | – | – | 224.5
[2], 285.15 K | – | – | 227.7
[2], 290.15 K | – | – | 230.4
[2], 295.15 K | – | – | 233.7
[2], 298.15 K | – | – | 236.9
[2], 300.15 K | – | – | 238.9
[2], 305.15 K | – | – | 240.8
[2], 310.15 K | – | – | 244.8
[2], 315.15 K | – | – | 249.8
[2], 320.15 K | – | – | 252.9
[2], 325.15 K | – | – | 256.1
[2], 330.15 K | – | – | 259.7
[2], 335.15 K | – | – | 263.1
[2], 340.15 K | – | – | 266.5
[2], 345.15 K | – | – | 269.7
[2], 350.15 K | – | – | 273.3
[2], 355.15 K | – | – | 277.8
[2], 360.15 K | – | – | 282.3
[2], 365.15 K | – | – | 287.2
[3], Crystal | 8.48 | – | –

Oc1cc(O)nc(S)n1 [2-mercapto-4,6-pyrimidinediol]
Settings | Molar enthalpy of transition or fusion [kcal/mol] | Triple point temperature [K] | molar heat capacity at constant pressure [J/K/mol]
[1], Crystal 1 | – | 516.4 | –
[1], Crystal 2 | – | 498 | –
[1], Crystal 3 | – | 475.8 | –
[1], Crystal 4 | – | 447.2 | –
[2], 265.15 K | – | – | 124.3
[2], 270.15 K | – | – | 126.6
[2], 273.15 K | – | – | 128
[2], 275.15 K | – | – | 128.8
[2], 280.15 K | – | – | 131.1
[2], 285.15 K | – | – | 132.5
[2], 290.15 K | – | – | 134.2
[2], 295.15 K | – | – | 136.2
[2], 298.15 K | – | – | 137.2
[2], 300.15 K | – | – | 138.6
[2], 305.15 K | – | – | 140
[2], 310.15 K | – | – | 142.2
[2], 315.15 K | – | – | 144.7
[2], 320.15 K | – | – | 146.3
[2], 325.15 K | – | – | 147.9
[2], 330.15 K | – | – | 150.1
[2], 335.15 K | – | – | 152
[2], 340.15 K | – | – | 153.8
[2], 345.15 K | – | – | 155.2
[2], 350.15 K | – | – | 156.6
[2], 355.15 K | – | – | 158.4
[2], 360.15 K | – | – | 160.2
[2], 365.15 K | – | – | 162.6
[2], 370.15 K | – | – | 164.7
[2], 375.15 K | – | – | 166
[2], 380.15 K | – | – | 167.7
[2], 385.15 K | – | – | 169.2
[2], 390.15 K | – | – | 171
[2], 395.15 K | – | – | 172.3
[2], 400.15 K | – | – | 174.8
[2], 405.15 K | – | – | 175.9
[2], 410.15 K | – | – | 177.2
[2], 415.15 K | – | – | 178.5
[2], 420.15 K | – | – | 179.8
[2], 425.15 K | – | – | 181.3
[2], 430.15 K | – | – | 182.9
[3], Crystal 1 | 3.54 | – | –
[3], Crystal 2 | 0.0717 | – | –
[3], Crystal 3 | 0.0478 | – | –
[3], Crystal 4 | 0.167 | – | –
